Test results published in patent publication US11208421B2, “2-carboxypenam compound or salt thereof, pharmaceutical composition containing novel 2-carboxypenam compound or salt thereof, and applications thereof” (priority 2017, dated 2021).
Values after ≈ are worked out from the molar mass of the structure shown.

Legend:
Type in all cases: cell-based
[1] = tested on: Pseudomonas aeruginosa strain ATCC 27853; test: Antibacterial activity evaluation test (MIC), broth microdilution, strain ATCC 27853; details: Pseudomonas aeruginosa, ATCC27853, read-out: MIC Pseudomonas aeruginosa strain ATCC 27853
Description: (§1) The minimum inhibitory concentration (MIC) was measured according to the Clinical and Laboratory Standards Institute (CLSI) standard method by using the following broth microdilution method.
(§2) As bacteria, a Pseudomonas aeruginosa strain ATCC 27853, a Pseudomonas aeruginosa AmpC derepression mutant strain S-3028, and a Pseudomonas aeruginosa IMP-1-producing strain S-2838 were used.
(§3) The Pseudomonas aeruginosa AmpC-derepression mutant strain S-3028 or the Pseudomonas aeruginosa IMP-1-producing strain S-2838 was cultured on a Mueller Hinton agar medium overnight, thereby preparing test bacterial cells. The obtained test bacterial cells were scraped off, suspended to yield 0.5 McFarland equivalence, and diluted 10-fold to obtain an inoculum. A cation-adjusted Mueller Hinton medium containing a test compound was inoculated with 0.0005 mL of the inoculum, and the cells were cultured at 35° C. for 16 to 20 hours. The minimum drug concentration at which the growth of bacteria was not visually observed was defined as MIC.
The MIC of the Pseudomonas aeruginosa ATCC strain 27853 was measured in the same manner as described above by using a cation-adjusted Mueller-Hinton medium supplemented with […] of apotransferrin as a final concentration.

[2] = tested on: Pseudomonas aeruginosa AmpC derepression mutant strain S-3028; test: Antibacterial activity evaluation test (MIC), broth microdilution, AmpC derepression mutant strain S-3028; details: Pseudomonas aeruginosa, read-out: MIC Pseudomonas aeruginosa strain S-3028
Description: as §1, §2, §3

[3] = tested on: Pseudomonas aeruginosa IMP-1-producing strain S-2838; test: Antibacterial activity evaluation test (MIC), broth microdilution, IMP-1-producing strain S-2838; details: Pseudomonas aeruginosa, read-out: MIC Pseudomonas aeruginosa strain S-2838
Description: as §1, §2, §3

Which results are given for `CC(C)(O/N=C(\C(=O)N[C@@H]1C(=O)N2C[C@](SCCNC(=O)/C(=N\NC(N)=O)c3ccc(O)c(O)c3)(C(=O)O)S[C@H]12)c1csc(N)n1)C(=O)O` [Example 14, (3R,5R,6R)-6-((Z)-2-(2-aminothiazol-4-yl)-2-(((2-carboxypropane-2-yl)oxy)imino)acetamide)-3-((2-(2-(2-carbamoylhydrazono)-2-(3,4-dihydroxyphenyl)acetamide)ethyl)thio)-7-oxo-4-thia-1-azabicyclo[3.2.0]heptane-3-carboxylic acid]?
MIC [1]: 0.25 µg/mL (≈ 0.338 µM); MIC [2]: 32 µg/mL (≈ 43.3 µM); MIC [3]: 1 µg/mL (≈ 1.35 µM)

`CO[C@@H](CNC(=O)/C(=N/NC(N)=O)c1ccc(O)c(O)c1Cl)CS[C@]1(C(=O)O)CN2C(=O)[C@@H](NC(=O)/C(=N\OC(C)(C)C(=O)O)c3csc(N)n3)[C@H]2S1` [Example 16, (3R,5R,6R)-6-((Z)-2-(2-aminothiazole-4-yl)-2-(((2-carboxypropan-2-yl)oxy)imino)acetamide)-3-(((S)-3-((E)-2-(2-carbamoylhydrazono)-2-(2-chloro-3,4-dihydroxyphenyl)acetamide)-2-methoxypropyl)thio)-7-oxo-4-thia-1-azabicyclo[3.2.0]heptane-3-carboxylic acid] was tested. Which MIC [1] did it give?
The MIC was 0.5 µg/mL (≈ 0.611 µM).

And the MIC [2]?
Its MIC is 16 µg/mL (≈ 19.6 µM).

What about the MIC [3] of the same molecule?
Its MIC is 8 µg/mL (≈ 9.78 µM).

Which results are given for `COC[C@H](CS[C@]1(C(=O)O)CN2C(=O)[C@@H](NC(=O)/C(=N\OC(C)(C)C(=O)O)c3csc(N)n3)[C@H]2S1)NC(=O)/C(=N\NC(N)=O)c1ccc(O)c(O)c1Cl` [Example 17, (3R,5R,6R)-6-((Z)-2-(2-aminothiazol-4-yl)-2-(((2-carboxypropane-2-yl)oxy)imino)acetamide)-3-(((R)-2-(2-(2-carbamoylhydrazono)-2-(2-chloro-3,4-dihydroxyphenyl)acetamide)-3-methoxypropyl)thio)-7-oxo-4-thia-1-azabicyclo[3.2.0]heptane-3-carboxylic acid]?
MIC [1]: ≤ 0.0625 µg/mL; MIC [2]: 8 µg/mL (≈ 9.78 µM); MIC [3]: 8 µg/mL (≈ 9.78 µM)

What does the source list for `CC(C)(O/N=C(\C(=O)N[C@@H]1C(=O)N2C[C@](SCCNC(=O)c3ccc(O)c(O)c3Cl)(C(=O)O)SC12)c1csc(N)n1)C(=O)O` (stereo partly drawn) [Example 18, (3R,5R,6R)-6-((Z)-2-(2-aminothiazol-4-yl)-2-(((2-carboxypropan-2-yl)oxy)imino)acetamide)-3-((2-(2-chloro-3,4-dihydroxybenzamide)ethyl)thio)-7-oxo-4-thia-1-azabicyclo[3.2.0]heptane-3-carboxylic acid]?
MIC [1]: 0.125 µg/mL (≈ 0.181 µM); MIC [2]: 2 µg/mL (≈ 2.9 µM); MIC [3]: 4 µg/mL (≈ 5.8 µM)

How did the MIC [1] turn out when `COC[C@H](CS[C@]1(C(=O)O)CN2C(=O)[C@@H](NC(=O)/C(=N\OC(C)(C)C(=O)O)c3csc(N)n3)C2S1)NC(=O)c1ccc(O)c(O)c1Cl` (stereo partly drawn) [Example 19, (3R,5R,6R)-6-((Z)-2-(2-aminothiazol-4-yl)-2-(((2-carboxypropan-2-yl)oxy)imino)acetamide)-3-(((R)-2-(2-chloro-3,4-dihydroxybenzamide)-3-methoxypropyl)thio)-7-oxo-4-thia-1-azabicyclo[3.2.0]heptane-3-carboxylic acid] was run?
The MIC was 0.125 µg/mL (≈ 0.17 µM).

What about the MIC [2] of the same molecule?
The MIC was 1 µg/mL (≈ 1.36 µM).

And the MIC [3]?
The MIC was 1 µg/mL (≈ 1.36 µM).

How did the MIC [1] turn out when `CC(C)(O/N=C(\C(=O)N[C@@H]1C(=O)N2C[C@](SC[C@H]3COCCN3C(=O)c3ccc(O)c(O)c3Cl)(C(=O)O)SC12)c1csc(N)n1)C(=O)O` (stereo partly drawn) [Example 20, (3R,5R,6R)-6-((Z)-2-(2-aminothiazol-4-yl)-2-(((2-carboxypropan-2-yl)oxy)imino)acetamide)-3-((((R)-4-(2-chloro-3,4-dihydroxybenzoyl)morpholin-3-yl)methyl)thio)-7-oxo-4-thia-1-azabicyclo[3.2.0]heptane-3-carboxylic acid] was run?
Its MIC is 0.5 µg/mL (≈ 0.671 µM).

What about the MIC [2] of the same molecule?
The MIC was 4 µg/mL (≈ 5.37 µM).

And the MIC [3]?
The MIC was 4 µg/mL (≈ 5.37 µM).
